In ChEMBL document CHEMBL1127003, “N-oleoyl-1,2,3,4-tetrahydroisoquinolines as conformationally restricted inhibitors of acyl-CoA:cholesterol acyl transferase (ACAT)” (Bioorg Med Chem Lett, 1993):

Legend:
[1] = target: T1, Sterol O-acyltransferase 1 (Rattus norvegicus) (UniProt O70536); test: Percent inhibition of Acyl coenzyme A:cholesterol acyltransferase at a concentration of 25(micro M) was evaluated in rat liver microsomes using ACAT microsomal assay.; details: Microsome
T1 sequence (whole entry): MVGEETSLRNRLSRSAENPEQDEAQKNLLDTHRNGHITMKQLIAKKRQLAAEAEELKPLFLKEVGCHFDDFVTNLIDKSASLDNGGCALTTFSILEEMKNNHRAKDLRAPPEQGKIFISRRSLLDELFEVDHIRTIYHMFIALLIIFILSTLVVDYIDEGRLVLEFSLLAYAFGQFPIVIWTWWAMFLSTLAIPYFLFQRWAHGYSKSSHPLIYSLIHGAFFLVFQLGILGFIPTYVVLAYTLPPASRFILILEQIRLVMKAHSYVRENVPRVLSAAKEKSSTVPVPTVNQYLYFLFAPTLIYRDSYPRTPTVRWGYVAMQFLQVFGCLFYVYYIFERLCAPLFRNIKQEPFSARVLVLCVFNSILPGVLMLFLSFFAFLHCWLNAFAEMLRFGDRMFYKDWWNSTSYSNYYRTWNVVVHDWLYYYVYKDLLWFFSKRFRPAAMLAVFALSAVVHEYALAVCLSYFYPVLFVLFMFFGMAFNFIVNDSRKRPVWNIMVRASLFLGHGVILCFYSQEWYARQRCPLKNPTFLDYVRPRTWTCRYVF

[2] = target: T2, Sterol O-acyltransferase 1 (Rattus norvegicus, UniProt O70536); test: Inhibitory activity was evaluated in rat liver microsomes using Acyl coenzyme A:cholesterol acyltransferase microsomal assay.; set-up: species or system Microsome
T2 sequence (O70536 whole entry): T1 sequence (whole entry)

SMILES | inhibition [1] [%] | IC50 [2] [µM]
CCCCCCCC/C=C\CCCCCCCC(=O)NC(Cc1ccccc1)c1ccccc1 (stereo unspecified) | 87 | 0.15
CCCCCCCC/C=C\CCCCCCCC(=O)N1Cc2cc(OC)c(OC)cc2CC1c1ccc(OC)c(OC)c1 (stereo unspecified) | 67 | 
CCCCCCCC/C=C\CCCCCCCC(=O)N1Cc2cc(OC)c(OC)cc2CC1c1ccccc1 (stereo unspecified) | 86 | 3.8
CCCCCCCC/C=C\CCCCCCCC(=O)N1CCc2cc(OC)c(OC)cc2C1Cc1ccc(OC)c(OC)c1 (stereo unspecified) | 91 | 2.7

The next lines start with the values.

inhibition [1] [%] | IC50 [2] [µM] | SMILES
73 |  | CCCCCCCC/C=C\CCCCCCCC(=O)N1CCc2cc(O)c(O)cc2C1Cc1ccccc1 (stereo unspecified)
63 |  | CCCCCCCC/C=C\CCCCCCCC(=O)N1CCc2cc(OC)c(OC)cc2C1Cc1ccccc1 (stereo unspecified)
81 | 4.8 | CCCCCCCC/C=C\CCCCCCCC(=O)N1CCc2ccccc2C1Cc1ccccc1 (stereo unspecified)
